This note sets out measurements from the NIST ThermoML archive (doi:10.1016/j.jct.2004.05.009).

The conditions of the data set: Liquid.

Numbers after ± are expanded uncertainties.

Regarding `Cl` [hydrogen chloride], the “vapor or sublimation pressure” value reads like this: (159.01 K) 13.79 ± 0.3 kPa; (182.33 K) 72.13 ± 1.2 kPa.

What is called vapor or sublimation pressure is the pressure of vapour in equilibrium with the condensed phase.
